Measured values from PMC8291137 (ACS Medicinal Chemistry Letters, 2021).

Legend:
[1] = test system: Vero E6 cells
[2] = Shake-flask aqueous solubility in Britton-Robinson buffer

With `Cn1cc(-c2cc(-c3cc(Cl)cc(OCc4scnc4C(F)(F)F)c3)c(=O)n(-c3cccnc3)c2)c(=O)[nH]c1=O` [Compound 21] the “cytotoxicity (in words)” value [1] was “no cytotoxicity” and the “aqueous solubility (in words)” value [2] was “good aqueous solubility”.
